Data from patent publication US11825868B2, “Sweetener composition” (Hapy Sweet Bee Ltd, priority 2019, dated 2023).
≈ marks a conversion by molar mass, not a printed value. Values belong to the compound of their own block, whether it stands above or below them.

Assays:
microbial growth = conditions: cited from earlier work
[1] = relative to sucrose, baseline 1.0; cited from earlier work
[2] = on the palate; reb-M used alone or substantially alone, compared to established rebaudioside sweeteners including reb-A; cited from earlier work
[3] = Solubility and retention of reb-M in 1,3-propanediol after heating and cooling; type: physicochemical
Method: The solvent or liquid base for the sweetener composition may comprise 1,3-propanediol and optionally one or more additional solvents. […] (175° F.) and cooled to room temperature. […] (36° F.).

[4] = room temperature; cited from earlier work

Compound: 1,3-propanediol
minimum inhibitory concentration (MIC) compared with other solvents such as glycerin (microbial growth): lower

Compound: O=C(CO)[C@@H](O)[C@H](O)[C@H](O)CO [fructose]
sweetness index [1]: approximately 1.7

Compound: C=C1C[C@@]23CC[C@H]4[C@@](C)(CCC[C@@]4(C)C(=O)O[C@@H]4O[C@H](CO)[C@@H](O)[C@H](O)[C@H]4O)[C@@H]2CC[C@]1(O[C@@H]1O[C@H](CO)[C@@H](O)[C@H](O[C@@H]2O[C@H](CO)[C@@H](O)[C@H](O)[C@H]2O)[C@H]1O[C@@H]1O[C@H](CO)[C@@H](O)[C@H](O)[C@H]1O)C3 [reb-A, Rebaudioside A]
bitter aftertaste [2]: bitter aftertaste

solubility ([3]; 1,3-propanediol, organic solvent or mixture, thermodynamic from solid, solvent heated in excess of 80° C. (175° F.) and cooled to room temperature): ~795 mg/mL (≈ 616 mM) | retention in solution on cooling ([3]; heated 1,3-propanediol solution cooled back to room temperature): retained in the solution | retention in solution on cooling ([3]; heated 1,3-propanediol solution cooled to approximately 2° C. (36° F.)): retained in solution
Compound: C=C1C[C@@]23CC[C@H]4[C@@](C)(CCC[C@@]4(C)C(=O)O[C@@H]4O[C@H](CO)[C@@H](O)[C@H](O[C@@H]5O[C@H](CO)[C@@H](O)[C@H](O)[C@H]5O)[C@H]4O[C@@H]4O[C@H](CO)[C@@H](O)[C@H](O)[C@H]4O)[C@@H]2CC[C@]1(O[C@@H]1O[C@H](CO)[C@@H](O)[C@H](O[C@@H]2O[C@H](CO)[C@@H](O)[C@H](O)[C@H]2O)[C@H]1O[C@@H]1O[C@H](CO)[C@@H](O)[C@H](O)[C@H]1O)C3 [reb-M, rebaudioside-M]
bitter aftertaste [2]: reduced bitterness of aftertaste | solubility in water [4]: up to 0.1 g per 100 ml water

Compound: OC[C@H]1O[C@@](CO)(O[C@H]2O[C@H](CO)[C@@H](O)[C@H](O)[C@H]2O)[C@@H](O)[C@@H]1O [sucrose]
sweetness index [1]: 1.0
